The subject of test [1] is E. coli NIHJ. Description: Antimicrobial activity test: MIC by the agar plate dilution method, E. coli NIHJ. Particulars: inoculum 1×10^6 cells/ml. The class given is cell-based. The procedure: In order to investigate the in vitro activity of the under-mentioned compounds against various bacteria, the minimal inhibitory concentration (MIC) values were determined by the agar plate dilution method [see Chemotherapy, 22, 1126-1128 (1974)].
Each test inoculum was adjusted to 1×10^6 cells/ml (O.D., 600 mμ: 0.07-0.16).

In test [2] the test system is P. aeruginosa NCTC-10490. The test is described as follows: Antimicrobial activity test: MIC by the agar plate dilution method, P. aeruginosa NCTC-10490. The class given is cell-based. Particulars: inoculum 1×10^6 cells/ml. The method in brief: (§1)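 Bacteria were standardised to 1×10^6 cells/ml (optical density 0.07-0.16 at 600 mμ) and then tested by agar plate dilution. The minimal inhibitory concentration was recorded.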

Test [3] relates to E. coli No. 29. Description: Antimicrobial activity test: MIC by the agar plate dilution method, E. coli No. 29. The class given is cell-based. The method in brief: as §1
For test [4], the system named is K. pneumoniae NCTC-9632. The test is described as follows: Antimicrobial activity test: MIC by the agar plate dilution method, K. pneumoniae NCTC-9632. The class given is cell-based. Particulars: inoculum 1×10^6 cells/ml. The method in brief: as §1
The subject of test [5] is S. marcescens IFO-12648. Description: Antimicrobial activity test: MIC by the agar plate dilution method, S. marcescens IFO-12648. The class given is cell-based. The method in brief:
as §1

Test [6] has as its system P. mirabilis 1287. Description: Antimicrobial activity test: MIC by the agar plate dilution method, P. mirabilis 1287. The class given is cell-based. The method in brief:
as §1

The test system of test [7] is S. aureus FDA-209-p. The test is described as follows: Antimicrobial activity test: MIC by the agar plate dilution method, S. aureus FDA-209-p. The class given is cell-based, Staphylococcus aureus. The conditions noted are these: inoculum 1×10^6 cells/ml. The method in brief: as §1
In test [8] the test system is M. morganii ATCC-25830. Description: Antimicrobial activity test: MIC by the agar plate dilution method, M. morganii ATCC-25830. The conditions noted are these: inoculum 1×10^6 cells/ml. The class given is cell-based. Summed up: as §1
Where [9] appears, read: P. mirabilis 1287, inoculum 1×10^6 cells/ml.
Where [10] appears, read: E. coli No. 29, inoculum 1×10^6 cells/ml.
[11] abbreviates: S. marcescens IFO-12648, inoculum 1×10^6 cells/ml.

The text below walks through data of patent publication US4831026A, “2-oxa-isocephem compounds, compositions containing same and processes of using” (Otsuka Pharmaceutical Co., Ltd., priority 1985, dated 1989).

Where two headings read alike, the source gives them in different places. Some results are limits rather than exact numbers.

Usually MIC stands for the lowest concentration that inhibits growth of the organism. Read a high MIC as a need for much substance. As to “7-[2-(2-Aminothiazol-4-yl)-2-methoxyiminoacetamido]-3-[(carbamoyloxy)methyl]-Δ^3 -O-2-isocephem-4-carboxylic acid (syn-isomer) [No. 1]”, the minimal inhibitory concentration (MIC) in test [1] stood at 0.2 µg/mL; in test [2], 1.56 µg/mL; in test [3], 0.39 µg/mL; in test [4], 0.39 µg/mL; in test [5], 0.78 µg/mL; in test [6] (setting [9]), 0.1 µg/mL. Besides, the minimal inhibitory concentration (MIC) was 0.78 µg/mL in test [7] and 0.1 µg/mL in test [8].

With “7-[2-(2-Aminothiazol-4-yl)-2-methylthiomethoxyiminoacetamido]-3-[(1,3,4-thiadiazol-2-yl)thiomethyl]-Δ^3 -O-2-isocephem-4-carboxylic acid (syn-isomer) [No. 12]”, the MIC in test [1] is at most 0.025 µg/mL; in test [2], 3.13 µg/mL; in test [3] (setting [10]) it was at most 0.025 µg/mL; in test [4], 0.05 µg/mL; in test [5] (setting [11]), 0.1 µg/mL; in test [6] (setting [9]) it was at most 0.025 µg/mL. In addition, the results for the minimal inhibitory concentration (MIC) in test [7] and in test [8] were 0.2 µg/mL and at most 0.025 µg/mL, respectively.

Consider “7-[2-(2-Chloroacetamidothiazol-4-yl)-2-ethoxyiminoacetamido]-3-[(1,3,4-thiadiazol-2-yl)thiomethyl-]-Δ^3 -O-2-isocephem-4-carboxylic acid (syn-isomer) [Example 28]”, for which the minimal inhibitory concentration (MIC) in test [1] was at most 0.025 µg/mL; in test [2], 1.56 µg/mL; in test [3] (setting [10]), at most 0.025 µg/mL; in test [4], 0.05 µg/mL; in test [5] (setting [11]), 0.2 µg/mL; in test [6] (setting [9]), at most 0.025 µg/mL. Besides, the results for the MIC in test [7] and in test [8] were 0.78 µg/mL and at most 0.025 µg/mL, respectively.

Consider “7-[2-(2-Formamidothiazol-4-yl)-2-methylthiomethoxyiminoacetamido]-3-[(1,3,4-thiadiazol-2-yl)thiomethyl]-Δ^3 -O-2-isocephem-4-carboxylic acid (syn-isomer) [Example 45]”, for which the MIC in test [1] was found to be 0.39 µg/mL; in test [2], 6.25 µg/mL; in test [3] it was 0.39 µg/mL; in test [4] it was 0.39 µg/mL; in test [5], 0.78 µg/mL; in test [6] (setting [9]) it was 0.2 µg/mL. Also, the minimum inhibitory concentration (MIC) in test [7] and in test [8] was 0.39 µg/mL throughout.

Regarding “7-[2-(2-Trifluoroacetamidothiazol-4-yl)-2methoxyiminoacetamido]-3-[(carbamoyloxy)methyl]-Δ^3 -O-2-isocephem-4-carboxylic acid (syn-isomer) [No. 5]”, the minimum inhibitory concentration (MIC) is 0.78 µg/mL in test [1]; 100 µg/mL in test [2]; 0.78 µg/mL in test [3]; 0.2 µg/mL in test [4]; 0.39 µg/mL in test [5]; 0.39 µg/mL in test [6]. Besides, the minimum inhibitory concentration (MIC) was above 100 µg/mL in test [7] and 0.2 µg/mL in test [8].

In the case of “(6S,7S)-7-[2-(2-Aminothiazol-4-yl)-2cyanomethoxyiminoacetamido]-3-[(1,3,4- thiadiazol-2-yl)thiomethyl]-Δ^3 -O-2-isocephem-4carboxylic acid trifluoroacetate (syn-isomer) [No. 16]”, the MIC is 0.39 µg/mL in test [1]; 0.39 µg/mL in test [2]; 0.2 µg/mL in test [3] (setting [10]); 0.39 µg/mL in test [4]; 0.78 µg/mL in test [5]; 0.1 µg/mL in test [6] (setting [9]). Besides, the MIC worked out at 0.39 µg/mL in test [7] and 0.05 µg/mL in test [8].

Turning to “Benzhydryl 7-[2-(2-aminothiazol-4-yl)-2-cyclopropylmethyloxyiminoacetamido]-3-[(1,2,3-thiadiazol-5-yl)thiomethyl]-Δ^3 -O-2-isocephem-4-carboxylate (syn-isomer) [Example 56]”, the minimal inhibitory concentration (MIC) in test [1] was 0.2 µg/mL; in test [2] it was 0.39 µg/mL; in test [3] (setting [10]) it was 0.1 µg/mL; in test [4] it was 0.39 µg/mL; in test [5] it was 0.78 µg/mL; in test [6] (setting [9]) it was 0.2 µg/mL. Further, the MIC in test [7] and in test [8] was 0.05 µg/mL throughout.

For the substance “Benzhydryl 7-[2-(2-formamidothiazol-4-yl)-2-ethoxyiminoacetamido]-3-[(1,3,4-thiadiazol-2-yl)thiomethyl]-Δ^3 -O-2-isocephem-4-carboxylate (syn-isomer) [Example 30]”, the minimal inhibitory concentration (MIC) is 0.05 µg/mL in test [1]; 25 µg/mL in test [2]; 0.1 µg/mL in test [3] (setting [10]); 0.2 µg/mL in test [4]; 0.39 µg/mL in test [5]; 0.2 µg/mL in test [6] (setting [9]). The results for the MIC in test [7] and in test [8] were 0.1 µg/mL and 0.39 µg/mL, respectively.

Turning to “Benzyl 7-[2-(2-chloroacetamidothiazol-4-yl)-2-ethoxyiminoacetamido]-3-[(1,3,4-thiadiazol-2-yl)thiomethyl]-Δ^3 -O-2-isocephem-4-carboxylate (syn-isomer) [Example 27]”, the minimum inhibitory concentration (MIC) in test [1] stood at 0.10 µg/mL; in test [2], 0.2 µg/mL; in test [3] (setting [10]), 0.1 µg/mL; in test [4], 0.2 µg/mL; in test [5] (setting [11]) it was 0.2 µg/mL; in test [6] (setting [9]), 0.1 µg/mL. The MIC in test [7] and in test [8] was 0.1 µg/mL in each case.
